Activity calls are given as the source filed them. The rule behind the calls is not given here.

The subject of data set [1] is HL-60. Briefly: Cytotoxicity against human HL60 cells after 72 hrs by alamar blue assay. The settings on record: HL-60, 72 h. It is filed as functional, cell-based. On the technique in general: Alamar Blue is a resazurin reagent that responds to reducing activity.
In another data set the test system is HeLa. The experiment in a line: Cytotoxicity against human HeLa cells after 72 hrs by alamar blue assay. It is filed as functional, cell-based.
In data set [2] the test system is MCF7. Briefly: Cytotoxicity against human MCF7 cells after 72 hrs by alamar blue assay. It is filed as functional, cell-based. Particulars: MCF7, 72 h.
The subject of data set [3] is MCF7. Briefly: Inhibition of ERK phosphorylation in human MCF7 cells at 10 uM after 16 hrs by Western blot analysis. The format is cell-based.
Data set [4] deals with MCF7. The experiment in a line: Effect on total ERK expression in human MCF7 cells after 16 hrs by Western blot analysis. It is filed as cell-based. Particulars: mcf7, 16 h. A general note: Immunoblotting shows a protein as a band on a membrane.
A further data set is filed under the species Homo sapiens. Briefly: Inhibition of ERK phosphorylation in human HL60 cells at 10 uM after 16 hrs by Western blot analysis. The format is cell-based.
Data set [5] relates to HL-60. The experiment in a line: Effect on total ERK expression in human HL60 cells after 16 hrs by Western blot analysis. The format is cell-based. Particulars: hl-60, 16 h.

In the case of `N=C(N)Oc1ccc(Oc2cccc(NC(=O)c3ccc(Cl)c(C(F)(F)F)c3)c2)cc1`, the IC50 in the data set on HL-60 [1] is 35.6 µM; with HeLa, 83.6 µM; in the data set with MCF7 [2], 28.7 µM.
Turning to `Cl.Cl.N=C(Nc1cccc(Oc2ccc(OC(=N)N)cc2)c1)Nc1ccc(Cl)c(C(F)(F)F)c1`, the IC50 turned out to be 5.49 µM in the data set on HL-60 [1], 3.35 µM with HeLa and 4.68 µM in the data set with MCF7 [2]. The inhibition entry in the data set with MCF7 [3] and in the data set listed under Homo sapiens was “Active” in each case. The Activity result in the data set on MCF7 [4] and in the data set on HL-60 [5] was “Non-Toxic” in each case.
For the molecule `Cl.Cl.N=C(N)Nc1ccc(Oc2cccc(NC(=N)Nc3ccc(Cl)c(C(F)(F)F)c3)c2)cc1`, the IC50 with HeLa was found to be 9.48 µM; in the data set with MCF7 [2], 9.84 µM. The inhibition result with MCF7 [3] is “Active”. In addition, the Activity entry with MCF7 [4] and with HL-60 [5] was “Non-Toxic” throughout. Moreover, the inhibition result in the data set listed under Homo sapiens was “inactive”.
As for `CNC(=O)c1cc(Oc2ccc(NC(=O)Nc3ccc(Cl)c(C(F)(F)F)c3)cc2)ccn1` [SORAFENIB], the IC50 is 2.59 µM in the data set with HL-60 [1], 4.59 µM with HeLa and 3.07 µM in the data set with MCF7 [2]. The inhibition result in the data set with MCF7 [3] and in the data set filed under Homo sapiens was “Active” throughout. The Activity entry in the data set with MCF7 [4] and in the data set with HL-60 [5] was “Non-Toxic” throughout.
Regarding `N=C(N)Nc1ccc(Oc2cccc(NC(=O)c3ccc(Cl)c(C(F)(F)F)c3)c2)cc1`, the IC50 in the data set on HL-60 [1] came out at 28.2 µM; in the data set on HeLa, 11.3 µM; in the data set with MCF7 [2], 20.8 µM.

A word on the IC50: it is the concentration that inhibits the measured activity by half. High values mean lower potency, low ones higher potency.

(Values after ChEMBL document CHEMBL4257509, “Effect of isouronium/guanidinium substitution on the efficacy of a series of novel anti-cancer agents” (Medchemcomm, 2018).)
